From patent publication US20100041892A1, “Therapeutic agent for diabetes” (priority 2005, published 2010)

Tests used:
PPARγ-RXRα heterodimer = target: T1, PPARγ-RXRα heterodimer (Homo sapiens, UniProt P37231); assay: PPARγ-RXRα heterodimer ligand activity (luciferase reporter, PPARγ:RXRα:4ERPP/CHO-K1 cells); format: cell-based; conditions: concentration showing 50% of the maximum luciferase induction rate; CHO-K1 reporter cells, one day incubation
T1 construct: expressed in transfected cells; host or cells: CHO-K1 (PPARγ:RXRα:4ERPP/CHO-K1)
T1 sequence (P37231 1-477 isoform P37231-2): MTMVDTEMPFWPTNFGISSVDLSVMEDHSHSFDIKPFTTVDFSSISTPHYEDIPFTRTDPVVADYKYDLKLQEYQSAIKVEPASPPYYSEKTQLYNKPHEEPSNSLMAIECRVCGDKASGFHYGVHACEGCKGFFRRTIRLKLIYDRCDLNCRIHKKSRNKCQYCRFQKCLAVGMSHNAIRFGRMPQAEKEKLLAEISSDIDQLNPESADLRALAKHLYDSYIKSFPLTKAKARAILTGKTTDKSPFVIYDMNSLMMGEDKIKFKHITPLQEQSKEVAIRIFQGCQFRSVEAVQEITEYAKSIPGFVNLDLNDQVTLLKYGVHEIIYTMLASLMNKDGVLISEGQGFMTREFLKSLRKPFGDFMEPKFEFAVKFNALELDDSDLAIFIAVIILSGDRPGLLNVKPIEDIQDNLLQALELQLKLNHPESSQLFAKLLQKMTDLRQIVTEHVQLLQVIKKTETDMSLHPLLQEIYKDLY
T1 sequence (P19793 1-462 partner): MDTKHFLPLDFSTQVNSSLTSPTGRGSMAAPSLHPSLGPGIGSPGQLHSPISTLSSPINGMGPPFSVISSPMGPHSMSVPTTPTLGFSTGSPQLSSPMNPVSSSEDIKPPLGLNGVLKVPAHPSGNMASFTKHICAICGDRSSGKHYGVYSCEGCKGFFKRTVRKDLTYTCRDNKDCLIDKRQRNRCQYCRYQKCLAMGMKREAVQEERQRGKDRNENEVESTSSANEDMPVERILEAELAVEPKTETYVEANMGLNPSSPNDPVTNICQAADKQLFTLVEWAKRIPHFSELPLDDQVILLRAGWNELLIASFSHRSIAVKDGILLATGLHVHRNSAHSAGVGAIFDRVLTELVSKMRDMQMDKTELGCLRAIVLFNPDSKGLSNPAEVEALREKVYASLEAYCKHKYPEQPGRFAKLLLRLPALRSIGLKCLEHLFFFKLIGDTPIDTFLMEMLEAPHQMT
Procedure: The PPARγ:RXRα:4ERPP/CHO-K1 cells described in WO03/099793 were cultured in a Ham F12 medium [manufactured by Life Technologies, Inc., US] containing 10% calf fetal serum [manufactured by Life Technologies, Inc., US], sown in a 96-well white plate (manufactured by Corning Coster Corporation, US] at 1×10^4 cells/well, and incubated overnight in a carbon dioxide gas incubator at 37° C.
Then, the medium was removed from the 96 well white plate, 45 μl of Ham F12-medium containing 0.1% fatty acid-free bovine serum albumin (BSA) and a test compound (5 μl) were added, and the cells were incubated for one day in a carbon dioxide gas incubator at 37° C. The medium was removed, 20 μl of PicaGene 7.5 (manufactured by Wako Pure Chemical Industries, Ltd.) 2-fold diluted with HBSS (HANKS' BALANCED SALT SOLUTION) [manufactured by BIO WHITTAKER, US] was added. After stirring, the luciferase activity was determined using the 1420 ARVO Multilabel Counter [manufactured by PerkinElmer, US].
The induction rate was calculated from the luciferase activity of each test compound based on the luciferase activity of the test compound non-administration group as 1. The test compound concentration and the induction rate were analyzed by PRISM [manufactured by GraphPad Software, Inc., US] to calculate EC50 value (compound concentration showing 50% of the maximum value of induction rate) of the test compound.

Row | Structure (SMILES) | EC50 (PPARγ-RXRα heterodimer) [nM] | melting point [°C]
1 | CCCCCS(=O)(=O)NC(=O)/C=C/c1ccc(OC(C)C)cc1Oc1ncc(C(F)(F)F)cc1Cl [Example 13, (2E)-3-[2-{[3-chloro-5-(trifluoromethyl)pyridin-2-yl]oxy}-4-isopropoxyphenyl]-N-(pentylsulfonyl)acrylamide] | 26 | –
2 | COCCOc1ccc(CCCOC(=O)NCC2CC2)c(Oc2ncc(C(F)(F)F)cc2Cl)c1 [Example 51, 3-[2-{[3-chloro-5-(trifluoromethyl)pyridin-2-yl]oxy}-4-(2-methoxyethoxy)phenyl]propyl (cyclopropylmethyl)carbamate] | 20 | 87.8 to 87.9
3 | CCCCCS(=O)(=O)NC(=O)/C(C)=C/c1ccc(OCCCOC)cc1Oc1ncc(Cl)cc1Cl [Example 190, (2E)-3-[2-[(3,5-dichloropyridin-2-yl)oxy]-4-(3-methoxypropoxy)phenyl]-2-methyl-N-(pentylsulfonyl)acrylamide] | 15 | 116 to 116.8
4 | C/C(=C\c1ccc(OC(C)C)cc1Oc1ncc(C(F)(F)F)cc1Cl)C(=O)NS(=O)(=O)NC1CCC(C)CC1 (stereo not shown) [Example 223, (2E)-3-(2-{[3-chloro-5-(trifluoromethyl)pyridin-2-yl]oxy}-4-isopropoxyphenyl)-2-methyl-N-{[(4-methylcyclohexyl)amino]sulfonyl}acrylamide] | 55 | 176.8 to 177.2
5 | CCCCCNS(=O)(=O)NC(=O)/C(C)=C/c1ccc(OC(C)C)cc1Oc1ncc(C(F)(F)F)cc1Cl [Example 224, (2E)-3-(2-{[3-chloro-5-(trifluoromethyl)pyridin-2-yl]oxy}-4-isopropoxyphenyl)-2-methyl-N-[(pentylamino)sulfonyl]acrylamide] | 16 | 137.8 to 138.5
6 | C/C(=C\c1ccc(OC(C)C)cc1Oc1ncc(C(F)(F)F)cc1Cl)C(=O)NS(=O)(=O)NCCc1cccs1 [Example 225, (2E)-3-(2-{[3-chloro-5-(trifluoromethyl)pyridin-2-yl]oxy}-4-isopropoxyphenyl)-2-methyl-N-({[2-(2-thienyl)ethyl]amino}sulfonyl)acrylamide] | 16 | 130 to 131
7 | CCCCCS(=O)(=O)NC(=O)/C=C/c1ccc(OCCC(C)(C)O)cc1Oc1ncc(C(F)(F)F)cc1Cl [Example 248, (2E)-3-[2-{[3-chloro-5-(trifluoromethyl)pyridin-2-yl]oxy}-4-(3-hydroxy-3-methylbutoxy)phenyl]-N-(pentylsulfonyl)acrylamide] | 18 | 135.5 to 136
8 | COCCOc1ccc(CCCOC(=O)NS(=O)(=O)NCCc2ccccn2)c(Oc2ncc(Cl)cc2Cl)c1 [Example 427, 3-[2-[(3,5-dichloropyridin-2-yl)oxy]-4-(2-methoxyethoxy)phenyl]propyl {[(2-pyridin-2-ylethyl)amino]sulfonyl}carbamate] | 22 | –
9 | CCCCCS(=O)(=O)NC(=O)/C=C/c1ccc(OCCCC#N)cc1Oc1ncc(C(F)(F)F)cc1Cl [Example 451, (2E)-3-[2-{[3-chloro-5-(trifluoromethyl)pyridin-2-yl]oxy}-4-(3-cyanopropoxy)phenyl]-N-(pentylsulfonyl)acrylamide] | 15 | –

The next molecules have a lower EC50 (PPARγ-RXRα heterodimer) than those just listed; values first:

Row | EC50 (PPARγ-RXRα heterodimer) [nM] | melting point [°C] | Structure (SMILES)
10 | 13 | – | CCCCCS(=O)(=O)NC(=O)/C=C/c1cc(OC(C)C)nn1Cc1ncc(C(F)(F)F)cc1Cl [Example 199, (2E)-3-(1-{[3-chloro-5-(trifluoromethyl)pyridin-2-yl]methyl}-3-isopropoxy-1H-pyrazol-5-yl)-N-(pentylsulfonyl)acrylamide]
11 | 13 | 81 to 83 | CCCCCS(=O)(=O)NC(=O)/C=C/c1ccc(OCCOCCOC)cc1Oc1ncc(C(F)(F)F)cc1Cl [Example 256, (2E)-3-{2-{[3-chloro-5-(trifluoromethyl)pyridin-2-yl]oxy}-4-[2-(2-methoxyethoxy)ethoxy]phenyl}-N-(pentylsulfonyl)acrylamide]
12 | 9.8 | 95.9 to 96.7 | CCCCCS(=O)(=O)NC(=O)CCc1ccc(OCCOC)cc1OCc1nc(-c2ccccc2)oc1C [Example 173, 3-{4-(2-methoxyethoxy)-2-[(5-methyl-2-phenyl-1,3-oxazol-4-yl)methoxy]phenyl}-N-(pentylsulfonyl)propanamide]
13 | 9.3 | – | CCCCCS(=O)(=O)NC(=O)/C=C/c1cc(OC(C)C)nn1Cc1ccc(C(F)(F)F)cc1Cl [Example 111, (2E)-3-{1-[2-chloro-4-(trifluoromethyl)benzyl]-3-isopropoxy-1H-pyrazol-5-yl}-N-(pentylsulfonyl)acrylamide]
14 | 8.7 | 86 to 89 | CCCCCS(=O)(=O)NC(=O)OCc1ccc(OS(=O)(=O)CCC)cc1Oc1ncc(C(F)(F)F)cc1Cl [Example 64, 3-{[3-chloro-5-(trifluoromethyl)pyridin-2-yl]oxy}-4-[({[(pentylsulfonyl)amino]carbonyl}oxy)methyl]phenyl propane-1-sulfonate]
15 | 8.5 | 152.5 to 153 | CCCCCNS(=O)(=O)NC(=O)/C(C)=C/c1ccc(OCCOC)cc1Oc1ncc(C(F)(F)F)cc1Cl [Example 226, (2E)-3-[2-{[3-chloro-5-(trifluoromethyl)pyridin-2-yl]oxy}-4-(2-methoxyethoxy)phenyl]-2-methyl-N-[(pentylamino)sulfonyl]acrylamide]
16 | 7.4 | – | CCCCCS(=O)(=O)NC(=O)/C=C/c1ccc(OCCCOC)cc1Oc1ncc(C(F)(F)F)cc1Cl [Example 251, (2E)-3-[2-{[3-chloro-5-(trifluoromethyl)pyridin-2-yl]oxy}-4-(3-methoxypropoxy)phenyl]-N-(pentylsulfonyl)acrylamide]
17 | 6.9 | – | CCCCCS(=O)(=O)NC(=O)CCc1ccc(OCC(=O)N(CC)CC)cc1Oc1ncc(C(F)(F)F)cc1Cl [Example 44, 3-{2-{[3-chloro-5-(trifluoromethyl)pyridin-2-yl]oxy}-4-[2-(diethylamino)-2-oxoethoxy]phenyl}-N-(pentylsulfonyl)propanamide]
18 | 6.6 | 147 to 150 | COCCOc1ccc(CCCOC(=O)NS(=O)(=O)c2ccc(Cl)cc2)c(Oc2ncc(C(F)(F)F)cc2Cl)c1 [Example 32, 3-[2-{[3-chloro-5-(trifluoromethyl)pyridin-2-yl]oxy}-4-(2-methoxyethoxy)phenyl]propyl [(4 chlorophenyl)sulfonyl]carbamate]
19 | 4.7 | – | COCCOc1ccc(CCCOC(=O)NS(=O)(=O)N2Cc3ccccc3C2)c(Oc2ncc(C(F)(F)F)cc2Cl)c1 [Example 371, 3-[2-{[3-chloro-5-(trifluoromethyl)pyridin-2-yl]oxy}-4-(2-methoxyethoxy)phenyl]propyl (1,3-dihydro-2H-isoindol-2-ylsulfonyl)carbamate]
20 | 3.9 | 95 to 95.8 | CCCCCS(=O)(=O)NC(=O)CCc1ccc(OCCCOCCOC)cc1Oc1ncc(C(F)(F)F)cc1Cl [Example 255, 3-{2-{[3-chloro-5-(trifluoromethyl)pyridin-2-yl]oxy}-4-[3-(2-methoxyethoxy)propoxy]phenyl}-N-(pentylsulfonyl)propanamide]
21 | 3.4 | – | CCCCCS(=O)(=O)NC(=O)CCc1ccc(OCCN2CCCC2=O)cc1Oc1ncc(C(F)(F)F)cc1Cl [Example 47, 3-{2-{[3-chloro-5-(trifluoromethyl)pyridin-2-yl]oxy}-4-[2-(2-oxopyrrolidin-1-yl)ethoxy]phenyl}-N-(pentylsulfonyl)propanamide]
22 | 2.3 | – | CCCCCS(=O)(=O)NC(=O)C(C)Cc1ccc(OCCOC)cc1Oc1ncc(C(F)(F)F)cc1Cl (stereo not shown) [Example 209, 3-[2-{[3-chloro-5-(trifluoromethyl)pyridin-2-yl]oxy}-4-(2-methoxyethoxy)phenyl]-2-methyl-N-(pentylsulfonyl)propanamide]
